According to the supplement of paper PMC10307832:

Assays:
Assay in all cases: relative viability (nuclei count vs DMSO), 5 days (fraction); higher = more cells survive
SGI-1776 + Tozasertib = compound: CN1CCC(CNc2ccc3ncc(-c4cccc(OC(F)(F)F)c4)n3n2)CC1 [SGI-1776] + Cc1cc(Nc2cc(N3CCN(C)CC3)nc(Sc3ccc(NC(=O)C4CC4)cc3)n2)n[nH]1 [Tozasertib] (partner 0.1 µM)
Procedure, shortened: (§1)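 Lung cancer cell lines in 1536-well plates were dosed by pin tool the day after seeding, either with one drug alone or with a fixed anchor-drug dose plus five library-drug doses (not always all listed) in √10 steps. After 5 days, cells were fixed and their nuclei stained in one step (final 0.05% Triton X-100, 1% formaldehyde, 1 ug/ml Hoechst), then counted on 4× images. Relative viability is the nuclei count in treated wells divided by that in vehicle wells. Values are medians of duplicate plates.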

Entinostat + Bortezomib = compound: Nc1ccccc1NC(=O)c1ccc(CNC(=O)OCc2cccnc2)cc1 [Entinostat] + CC(C)C[C@H](NC(=O)[C@H](Cc1ccccc1)NC(=O)c1cnccn1)B(O)O [Bortezomib] (partner 0.002 µM)
Procedure, shortened: as §1

[1] = compound: C1COCCN1C2=NC(=NC3=C2OC4=C3C=CC=N4)C5=CC(=CC=C5)NC(=O)C6=CN=C(C=C6)N + Cc1nc(NC(=O)N2CCC[C@H]2C(N)=O)sc1-c1ccnc(C(C)(C)C(F)(F)F)c1 [Alpelisib] (partner 2 µM)
Procedure, shortened: as §1

[2] = compound: C1COCCN1C2=NC(=NC3=C2OC4=C3C=CC=N4)C5=CC(=CC=C5)NC(=O)C6=CN=C(C=C6)N + CC1(C)CCC(c2ccc(Cl)cc2)=C(CN2CCN(c3ccc(C(=O)NS(=O)(=O)c4ccc(N[C@H](CCN5CCOCC5)CSc5ccccc5)c(S(=O)(=O)C(F)(F)F)c4)cc3)CC2)C1 [Navitoclax] (partner 0.5 µM)
Procedure, shortened: as §1

UMC-11
relative viability (SGI-1776 + Tozasertib; first compound 0.08 µM): 0.21 | relative viability (SGI-1776 + Tozasertib; first compound 0.8 µM): 0.194 | relative viability (SGI-1776 + Tozasertib; first compound 2.53 µM): 0.208 | relative viability (SGI-1776 + Tozasertib; first compound 8 µM): 0.197 | relative viability (Entinostat + Bortezomib; first compound 0.02 µM): 0.557 | relative viability (Entinostat + Bortezomib; first compound 0.06325 µM): 0.708 | relative viability (Entinostat + Bortezomib; first compound 0.2 µM): 0.827 | relative viability (Entinostat + Bortezomib; first compound 0.6325 µM): 0.217 | relative viability (Entinostat + Bortezomib; first compound 2 µM): 0.111 | relative viability ([1]; first compound 0.02 µM): 1.06 | relative viability ([1]; first compound 0.06325 µM): 1.04 | relative viability ([1]; first compound 0.2 µM): 1.03 | relative viability ([1]; first compound 0.6325 µM): 1.08 | relative viability ([1]; first compound 2 µM): 0.593 | relative viability ([2]; first compound 0.02 µM): 0.278 | relative viability ([2]; first compound 0.06325 µM): 0.292 | relative viability ([2]; first compound 0.2 µM): 0.266 | relative viability ([2]; first compound 0.6325 µM): 0.284 | relative viability ([2]; first compound 2 µM): 0.246
